Experimental findings from article PMC6169531 (Journal of molecular biology, 2016) are described below.

Common to all, as to test: inhibition of methyl p-nitrophenyl phosphate hydrolysis, […] nm
Common to all, as to format: biochemical

In assay [1] the target is AP (Escherichia coli alkaline phosphatase) (Escherichia coli, UniProt P00634, D175A).
The target of assay [2] is AP (Escherichia coli alkaline phosphatase) (Escherichia coli, UniProt P00634, K350A).
Assay [3] deals with AP (Escherichia coli alkaline phosphatase) (Escherichia coli, UniProt P00634, D123A).
Sequence of AP (Escherichia coli alkaline phosphatase) (Escherichia coli, UniProt P00634, D123A) (P00634 23-471, stated change not applied): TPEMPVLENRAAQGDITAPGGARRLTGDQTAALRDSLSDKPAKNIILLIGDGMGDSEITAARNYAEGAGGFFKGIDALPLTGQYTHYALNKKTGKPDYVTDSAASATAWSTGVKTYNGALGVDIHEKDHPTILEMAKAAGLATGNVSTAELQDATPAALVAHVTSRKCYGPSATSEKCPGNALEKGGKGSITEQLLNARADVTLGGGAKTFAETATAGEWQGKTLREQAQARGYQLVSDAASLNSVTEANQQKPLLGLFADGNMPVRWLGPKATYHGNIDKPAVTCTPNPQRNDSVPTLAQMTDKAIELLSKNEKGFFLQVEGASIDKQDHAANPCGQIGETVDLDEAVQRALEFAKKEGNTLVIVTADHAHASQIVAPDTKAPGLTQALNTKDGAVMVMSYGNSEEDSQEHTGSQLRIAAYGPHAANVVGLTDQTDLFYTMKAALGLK
Assay [4] concerns the target AP (Escherichia coli alkaline phosphatase) (Escherichia coli, UniProt P00634, E344Y).

Molecules are shown by their SMILES.

By Ki is commonly meant a measure of affinity in units of concentration, obtained from inhibition or displacement.

Sequence of AP (Escherichia coli alkaline phosphatase) (Escherichia coli, UniProt P00634, D175A) (P00634 23-471 D175A): as the sequence (P00634 23-471, stated change not applied) above, with D153A counted along it
Sequence of AP (Escherichia coli alkaline phosphatase) (Escherichia coli, UniProt P00634, K350A) (P00634 23-471 K350A): as the sequence (P00634 23-471, stated change not applied) above, with K328A counted along it
Sequence of AP (Escherichia coli alkaline phosphatase) (Escherichia coli, UniProt P00634, E344Y) (P00634 23-471 E344Y): as the sequence (P00634 23-471, stated change not applied) above, with E322Y counted along it

`[O]=[W](=[O])([OH])[OH]` [tungstate]: the inhibition constant (Ki) in assay [1] came to 64 µM; in assay [2], 44 µM; in assay [3], 99 µM.
`[O]=[V]([OH])([OH])[OH]` [vanadate]: the Ki was determined as 17 µM in assay [1], 9.4 µM in assay [2], 13 µM in assay [3] and 28 µM in assay [4].
